From paper PMC3289669, “Capacity for Absorption of Water-Soluble Secondary Metabolites Greater in Birds than in Rodents” (PLoS ONE, 2012)
Values joined by “and” are separate entries in the source; they are usually repeats but may differ in a detail not shown here. Identical values can stand only once. Like-named read-outs stand apart in the source and are kept apart here. Blank lines part the entries; values can stand above or below the molecule they belong to.

Key:
[1] = Recovery of injected probes in urine, both rodent species pooled; type: in vivo; settings: Acomys cahirinus and Acomys russatus (pooled), intraperitoneal, data for both rodent species pooled, post-injection, read-out: Recovery of injected probe in urine, 95% C.I.
Method: (§1) As a measure of passive, paracellular absorption, we used standard methods from pharmacokinetics to measure the whole-organism fractional absorption of water-soluble compounds. As described in more detail, below, metabolically inert probe molecules were injected and also administered orally with a gavage needle to intact animals in separate experiments, and blood and/or urine samples were serially collected and analyzed for the probe molecules by liquid scintillation. Fractional absorption (f) was calculated as [post oral administration AUC]/[ post injection AUC] where AUC = dose-corrected area under the curve of plasma or urine probe amount vs. time. […] In mammals, the probes can be recovered in urine, and estimates of oral absorption take account of possible differential recovery by incorporating data on probes when injected. As shown in Results, recoveries of carbohydrate probes were uniformly high, which is in agreement with measures by others in rats and humans. In birds, plasma is sampled rather than urine, because urine is mixed in the avian cloaca with undigested residue from the intestine. […] In Discussion we elaborate on comparisons between these two procedures and reasons to choose them.
Also, the rodents were transferred to metabolic cages with wire bottoms and a tray beneath from which to collect clean urine samples. At the beginning of a trial, animals were orally dosed at 1.0% body mass with an isosmotic solution containing L-[^14C]arabinose (∼0.02 µCi/g animal) and either [^3H]3OMD-glucose (∼0.1 µCi/g animal) or [^3H]lactulose (∼0.5 µCi/g animal). […]
(§2) After administration of radiolabeled probes, birds and rodents were returned to their cages, where birds had ad libitum access to fruit and the rodents had ad libitum access to sucrose solution (10% w/w). […] Scintillation cocktail (Quicksafe A, Zinsser, UK) was added and samples were counted for disintegrations per minute (dpm) by liquid scintillation (Packard Tri-Carb 1600 TR scintillation counter, Packard INC., Meriden CT, USA), with corrections for quench and appearance of ^14C counts in the ^3H channel. […]

[2] = Fractional absorption of orally administered probes by rodents (urine recovery); type: in vivo, Acomys cahirinus and Acomys russatus; settings: for Fractional absorption (f): oral, both rodent species pooled, corrected for post-injection recovery, mean ± SEM
Method: as §1
(§3) Also, the rodents were transferred to metabolic cages with wire bottoms and a tray beneath from which to collect clean urine samples. At the beginning of a trial, animals were orally dosed at 1.0% body mass with an isosmotic solution containing L-[^14C]arabinose (∼0.02 µCi/g animal) and either [^3H]3OMD-glucose (∼0.1 µCi/g animal) or [^3H]lactulose (∼0.5 µCi/g animal). Oral dose solutions also contained NaCl (∼90 mM, ∼180 mOsm) and D-glucose (∼90 mM, ∼90 mOsm). NaCl was included in the solution to balance osmolality. Inclusion of Na^+ also provides an essential ion for Na^+-coupled D-glucose absorption, although it is not strictly necessary in this kind of whole-animal study because animals would still absorb nearly all glucose even if the diet is low in Na^+ because additional Na^+ is secreted into the intestinal lumen together with bicarbonate and diffuses from blood. In a separate experimental trial, each animal was injected (0.6% body mass) with isosmotic NaCl solution containing L-[^14C]arabinose (∼0.02 µCi/g animal) and either [^3H]3OMD-glucose (∼0.1 µCi/g animal) or [^3H]lactulose (∼0.1 µCi/g animal). The injection site was the pectoralis muscle in birds and the peritoneal cavity in rodents. Syringes were weighed before and after dosing animals to determine actual dose administered.
(§4) After administration of radiolabeled probes, birds and rodents were returned to their cages, where birds had ad libitum access to fruit and the rodents had ad libitum access to sucrose solution (10% w/w). The purpose was to provide rodents water and some calories and also make them urinate more. Serial blood samples (∼25 µL) were drawn from the brachial vein of birds as described previously at t = 0 (background), 10, 20, 30, 45, 60, 80 or 90, 120, 150 min post-injection or post-oral administration. Plasma was separated using a standard hematocrit centrifuge, placed in scintillation vials and weighed. […] Scintillation cocktail (Quicksafe A, Zinsser, UK) was added and samples were counted for disintegrations per minute (dpm) by liquid scintillation (Packard Tri-Carb 1600 TR scintillation counter, Packard INC., Meriden CT, USA), with corrections for quench and appearance of ^14C counts in the ^3H channel. […]

[3] = Fractional absorption of orally administered probes by Tristram's grackle (plasma AUC); type: in vivo, Onychognathus tristramii; settings: oral; for Tmax: Onychognathus tristramii, plasma, read-out: Time of peak plasma level post oral administration; for Fractional absorption (f): AUCoral/AUCinj, mean ± SEM
Method: as §1, §3, §4

[4] = Fractional absorption of orally administered probes by yellow-vented bulbul (plasma AUC); type: in vivo, Pycnonotus xanthopygos; settings: oral; for Tmax: Pycnonotus xanthopygos, plasma, read-out: Time of peak plasma level post oral administration (converted); for Fractional absorption (f): AUCoral/AUCinj, mean ± SEM
Method: as §1, §3, §4

[5] = Fractional absorption of orally administered probes, both bird species pooled; type: in vivo, Onychognathus tristramii and Pycnonotus xanthopygos; settings: for Fractional absorption (f): oral, both bird species pooled, mean ± SEM
Method: as §1
as §3, with “In a separate experimental trial, each animal was injected (0.6% body mass) with isosmotic NaCl solution containing L-[^14C]arabinose (∼0.02 µCi/g animal) and either [^3H]3OMD-glucose (∼0.1 µCi/g animal) or [^3H]lactulose (∼0.1 µCi/g animal). The injection site was the pectoralis muscle in birds and the peritoneal cavity in rodents. Syringes were weighed before and after dosing animals to determine actual dose administered.” left out
as §2

[6] = Mono-exponential fit of plasma probe concentrations after injection, Tristram's grackle; type: in vivo, Onychognathus tristramii; settings: dose-corrected plasma concentration, mean ± SEM
Method: as §3, with “In a separate experimental trial, each animal was injected (0.6% body mass) with isosmotic NaCl solution containing L-[^14C]arabinose (∼0.02 µCi/g animal) and either [^3H]3OMD-glucose (∼0.1 µCi/g animal) or [^3H]lactulose (∼0.1 µCi/g animal). The injection site was the pectoralis muscle in birds and the peritoneal cavity in rodents. Syringes were weighed before and after dosing animals to determine actual dose administered.” left out
as §2

[7] = Mono-exponential fit of plasma probe concentrations after injection, yellow-vented bulbul; type: in vivo, Pycnonotus xanthopygos; settings: dose-corrected plasma concentration, mean ± SEM
Method: as §3, with “In a separate experimental trial, each animal was injected (0.6% body mass) with isosmotic NaCl solution containing L-[^14C]arabinose (∼0.02 µCi/g animal) and either [^3H]3OMD-glucose (∼0.1 µCi/g animal) or [^3H]lactulose (∼0.1 µCi/g animal). The injection site was the pectoralis muscle in birds and the peritoneal cavity in rodents. Syringes were weighed before and after dosing animals to determine actual dose administered.” left out
as §2

[8] = parameters: method as in earlier work; settings: house sparrows; cited from earlier work
[9] = parameters: method as in PMID 17644690; settings: rock doves; cited from earlier work
[10] = parameters: method as in PMID 17644690; settings: laboratory rats; cited from earlier work
[11] = parameters: method as in PMID 2167807; settings: humans, corrected for incomplete urine recovery; cited from earlier work
[12] = Recovery of injected probes in urine of common spiny mice; type: in vivo; settings: Acomys cahirinus (common spiny mouse), ip; A. cahirinus, intraperitoneal injection, cumulative urine recovery, mean ± SEM; read-out: Recovery of injected probe in urine
Method: (§5) As a measure of passive, paracellular absorption, we used standard methods from pharmacokinetics to measure the whole-organism fractional absorption of water-soluble compounds. As described in more detail, below, metabolically inert probe molecules were injected and also administered orally with a gavage needle to intact animals in separate experiments, and blood and/or urine samples were serially collected and analyzed for the probe molecules by liquid scintillation. Fractional absorption (f) was calculated as [post oral administration AUC]/[ post injection AUC] where AUC = dose-corrected area under the curve of plasma or urine probe amount vs. time. […] In mammals, the probes can be recovered in urine, and estimates of oral absorption take account of possible differential recovery by incorporating data on probes when injected. […]
as §2

[13] = Recovery of injected probes in urine of golden spiny mice; type: in vivo; settings: Acomys russatus (golden spiny mouse), ip; A. russatus, intraperitoneal injection, cumulative urine recovery, mean ± SEM; read-out: Recovery of injected probe in urine
Method: as §5, §2

[14] = in vivo; cited from earlier work
[15] = parameters: method as in PMID 18025481; settings: rats, cited from earlier work
[16] = test system: whole-animal glucose absorption; parameters: method as in PMID 20145981; settings: laboratory rats, cited from earlier work
[17] = test system: whole-animal glucose absorption; parameters: method as in PMID 20145981; settings: American robins; cited from earlier work
[18] = rock doves, nicotine in cationic water-soluble form, predicted from MW size-dependence of paracellular absorption
Source text: These factors of molecule size, charge, and associated nutrients help define the conditions under which water-soluble SMs may be best absorbed.

[19] = rock doves, area under the curve calculations; ref F. D. Cid, E. Caviedes-Vidal and W.H. Karasov, unpubl. observations; cited from earlier work

dose excreted [1]: 81 to 93%
Fractional absorption (f) [2]: 0.37
Fractional absorption (f) ([2]; listed as arabinose): 0.37±0.06
Tmax [3]: ≤ 10 min
Fractional absorption (f) [3]: 0.98±0.07
Tmax [4]: ≤ 10 min
Fractional absorption (f) [4]: 1.10±0.15
Fractional absorption (f) [5]: 1.03±0.17 and 1.03±0.07
A, mono-exponential fit Ct = A e^−αt [6]: 25.1±3.1 mg^−1 plasma
A, mono-exponential fit Ct = A e^−αt [7]: 73.1±4.2 mg^−1 plasma
Structure (SMILES): OC1OC[C@H](O)[C@H](O)[C@H]1O (mixture of isomers) [L-arabinose]
Fractional absorption (f) [8]: 0.61
Fractional absorption (f) [9]: 0.61
Fractional absorption (f) [10]: 0.34
Fractional absorption (f) [11]: 0.26

dose excreted [1]: 90 to 97%
Fractional absorption (f) [2]: 0.085±0.021
Fractional absorption (f) [3]: 0.069±0.011
Fractional absorption (f) [4]: 0.30±0.10
Fractional absorption (f) [5]: 0.17±0.06
Structure (SMILES): OC[C@H]1O[C@@H](O[C@@H]2[C@@H](CO)OC(O)(CO)[C@H]2O)[C@H](O)[C@@H](O)[C@H]1O (mixture of isomers) [lactulose]

dose excreted [12]: 100 ± 1%
dose excreted [13]: 93 ± 3%
dose excreted [1]: 96 to 101%
Fractional absorption (f) [2]: 0.95±0.01
Ratio f L-arabinose/f 3OMD-glucose (proportion of 3OMD-glucose absorption that is passive) ([2]; rodents, corrected for difference in MW): 0.34
Tmax [3]: 40 to 50 min
Fractional absorption (f) [3]: 0.95±0.08
Tmax [4]: 30 min
Fractional absorption (f) [4]: 0.80±0.19
Ratio f L-arabinose/f 3OMD-glucose (proportion of 3OMD-glucose absorption that is passive) ([5]; birds, corrected for difference in MW): 1
Fractional absorption (f) [5]: 0.88±0.08
A, mono-exponential fit Ct = A e^−αt [6]: 22.6±3.0 mg^−1 plasma
A, mono-exponential fit Ct = A e^−αt [7]: 81.1±10.4 mg^−1 plasma
Structure (SMILES): CO[C@@H]([C@H](O)[C@H](O)CO)[C@@H](O)C=O [3-O-methyl-D-glucose]

Structure (SMILES): O=C[C@@H](O)[C@H](O)[C@@H](O)[C@@H](O)CO [L-glucose]
Share of glucose absorption accounted for by L-glucose (passive) [14]: 50 to >90

Structure (SMILES): C[C@H](O)[C@H](O)[C@@H](O)[C@@H](O)C=O [L-rhamnose]
Fractional absorption ([15]; estimate from serially sampling blood): 0.24±0.03
Fractional absorption ([15]; measured by urine recovery): 0.22±0.03

Structure (SMILES): O=c1c(OC2OC(CO)C(O)C(O)C2O)c(-c2ccc(O)c(O)c2)oc2cc(O)cc(O)c12 (centres unmarked) [isoquercetrin]
Effect on glucose absorption [16]: significantly decreased glucose absorption
Effect on glucose absorption [17]: not in robins

Structure (SMILES): CN1CCC[C@H]1c1cccnc1 [nicotine]
Predicted absorption of a dose [18]: around 40%
Absorption of a dose [19]: 44±3%

Structure (SMILES): O=C(CCc1ccc(O)cc1)c1c(O)cc(O)cc1O[C@@H]1O[C@H](CO)[C@@H](O)[C@H](O)[C@H]1O [phloridzin]
Inhibition of whole-animal glucose absorption efficiency ([16]; 10 mM): > 36%
Effect on glucose absorption [17]: did not significantly decrease glucose absorption
